Test system: HIV-infected CD4 T cells
Assay: PGT121 antibody-mediated killing of HIV-infected CD4 T cells, monocyte effector model
Assay type: cell-based, human
Conditions: monocytes from 1 subject pre-treated 1 day with 11 or 33 nM
Text: NK cells and monocytes mediate antibody-dependent cellular cytotoxicity (ADCC) and antibody-dependent cellular phagocytosis (ADCP) respectively. To assess the ability of the compound of Example 15 to enhance ADCC and ADCP, two models were developed using monocytes or PBMCs as effector cells and HIV-infected CD4 T cells as target cells. PBMCs were isolated from 3 healthy subjects' leukaphereses (AlICells, participant IDs A4593, A4596, A4606), as described above. CD4 T cells were isolated from PBMCs using negative selection magnetic beads (EasySep, StemCell Technologies). CD4 T cells were spinfected with HIV-1 isolate 92HT593 (NIH AIDS Reagent Program) and cultured for 5 days at 37° C. For the PBMC model, autologous PBMCs were cultured for 5 days with vehicle control (DMSO) or Example 15 at 100 or 1000 nM. […] Marker staining was measured by flow cytometry using a LSR Fortessa (BD Biosciences) and analyzed with FlowJo software (TreeStar). The percent killing was determined by calculating the reduction of p24+CD4+ T cells mediated by PGT121 antibody relative to a no antibody control.
PBMCs (FIG. 3) or monocytes (FIG. 4) were treated with DMSO or TLR8 agonist for 5 days (FIG. 3) or 1 day (FIG. 4) and then co-cultured for 1 day with autologous HIV-infected CD4 T cells−/+anti-HIV Env antibody PGT121. Reductions in %p24+ CD4+ T cells, relative to no antibody control, were measured by FACS. […]

CCCC[C@H](CO)Nc1nc(N)nc2cccnc12 [Example 15]
PGT121-mediated killing of HIV-infected CD4+ T cells compared to DMSO control: markedly enhanced
